Laboratory results reported in US6372793B1, “Method for treatment of a neurological disease characterized by impaired neuromodulator function” (Florida Agricultural & Mechanical University, priority 1999, dated 2002).
Counter-ions that a name gives are not always drawn.

Experiments:
rats [1] = experiment: Effect of farnesylcysteine analogs on the movements of rats (Animal Activity Monitor); format: in vivo, rat; settings: 1 mmmol icv alone or in combination with 1 mmmol of SAM
Protocol: Cannulated rats were injected (icv) with AFC or FTP (1 mmmol, 5 mml) in combination with PBS or 1 mmmol of SAM, injected similarly 5 min after injection of the FC analogs. Their movements were measured in an Animal Activity Monitor (AccuScan Electronics, Inc., Columbus, Ohio) and compared to those of control animals that received PBS.

[2] = tested on: 6-hydroxydopamine-lesioned rats; experiment: Amphetamine-induced ipsiversive rotation of 6-hydroxydopamine-lesioned rats (RotoScan Rotometer); format: in vivo, rat
rat brain membranes = experiment: SAM-dependent methylation of FC analogs by rat brain membranes; format: biochemical; settings: 60 min; for methylation by rat nerve cell membranes in the presence of [3H-methyl]SAM: 200 mmM analog, 37° C.
Protocol: AFC, FTP and FTS (200 mmM) were each incubated for 60 min with rat brain membranes (240 mmg of protein) at 37° C. in 100 mM Tris-HCl, pH 7.4 containing SAM (10 mmM, 1.3 mmCi [^3H-methyl]-SAM), 5 mM MgSO4 and 0.1 M NaCl in a total incubation volume of 400 mml. The reactions were stopped with 5% TFA and chilled on ice. Hexane (400 mml) was added and the contents of the tubes mixed thoroughly. This was followed by centrifugation at 20,000 g for 2 min. The upper hexane layer was removed and 250 mml analyzed by reversed-phase HPLC on a Whatman column (C18, 4.6×150 mm). Methylated FC analogs were eluted from the column at a rate of 1 ml/min with a 0 to 100% gradient of acetonitrile in 0.1% TFA from the 3rd to the 15th min of each run. This composition was maintained for a further 2 min before re-equilibration of the column for the next sample. Detection was conducted with an online radiochromatographic detection system (INUS β-ram, Tampa, Fla.).

SAM-induced tremors [3] = experiment: Effect of farnesylcysteine/prenylcysteine analogs on SAM-induced tremors and PD-like symptoms; format: in vivo, rat; settings: 20 min
Protocol: (§1) Rats were cannulated for subsequent injections into the lateral ventricle as previously described (Charlton and Mack, 1994). Briefly, each rat was anesthetized with 400 mg/kg of chloral hydrate. A stainless steel guide cannula was stereotaxically placed 1.5 mm lateral and 0.6 mm caudal to the Bregma with the tip extended to the inner surface of the cranium, above the dura mater. At least 2 days following cannulation, injections were made through the cannula into the lateral ventricle with a 26 gauge insertion cannula, pre-measured to descend 5 mm from the surface of the skull into the lateral ventricle. Each injected rat was put in a cage which was then placed on the sensor assembly of the Tremor-Scan Monitor. The recording parameters were set according to the manufacturer's instructions by adjusting the Gain on the instrument to 4 which insured that most of the signals with large or small amplitudes remained within the detection limit or not reduced to the baseline respectively, as viewed on the computer monitoring screen. The noise that could interfere with the SAM-induced tremors is usually of low amplitude and was reduced to baseline levels by this gain setting. This setting was used for all subsequent recording and storage of the vibration signals due to tremor-like activities of the
AFC, FTP and FTS were each suspended in PBS and dissolved by adjusting the pH to 7.4 with NaOH followed by the addition of more PBS to make 0.2 mmol/ml solutions. PBS or each compound, dissolved in 5 mml of solution, was injected into the lateral ventricle of cannulated rats 5 min prior to SAM injections. SAM (1 mmmol in 5 mml of PBS) was injected and the movements recorded over a 20 min period as described above.

rat nerve cell membranes = experiment: In vitro association of [3H-methyl]SAM or 3H-MPP+ with rat nerve cell membranes; format: binding; settings: for effect on association of [3H-methyl]SAM radioactivity with membranes: 100 mmM non-radioactive compound in the incubation mixture; for effect on 3H-MPP+ association with membranes: non-radioactive competitor
Protocol: Rat brain (1.76 g) was homogenized in 20 ml of 50 mM Tris-HCl, pH 7.4 containing 2.5 mM EDTA and 0.02% bovine serum albumin and centrifuged at 900×g for 10 min. The supernatant was transferred and the pellet re-suspended in the same buffer and centrifuged. The 900×g supernatants were combined and centrifuged at 20,000×g for 40 min. The supernatant was removed and the pellet resuspended in 5 ml of buffer, aliquoted and frozen at −70° C. until needed.
To understand whether the behavioral effects of SAM were due to interactions with cellular macromecules, [^3H-methyl]SAM (0.2 mmCi) was incubated with rat nerve cell membranes (30 mmg of protein) at 37° C. At the appropriate incubation periods, the reaction tubes were removed and centrifuged (13,000 rpm, MSE Centaur) for 10 min. The supernatant was discarded and the pellet suspended in scintillation fluid and their total radioactive content determined by scintillation counting.

rats [4] = experiment: Tremors and PD-like symptoms induced by icv SAM, recorded on the Tremor-Scan Monitor; format: in vivo, rat
Protocol: as §1
The Tremor Monitor software, which allows for the determination of 1) the signal amplitude, 2) the number of cycles in each activity or episode, 3) the number of activities and 4) the duration of each activity or episode, aided in the storage and subsequent retrieval and analysis of the recorded activity profiles. Analysis of the stored data was achieved by altering the minimum and maximum frequency, amplitude and number of cycles to reflect the unique properties of each kind of movement and thus delineate the SAM-induced tremors from non-tremor activity signals.
The dose-dependent effects of SAM was also determined in cannulated rats injected with 0 (PBS), 0.5, 0.75 and 1.0 mmmol of SAM. Their tremor activities were recorded on the Tremor-Scan monitor for 20 min.
To determine the duration and magnitude of SAM-induced tremors, groups of cannulated rats were injected either with 1 mmmol of SAM or with 5 mml of PBS, as control. The animals were monitored on the Tremor-Scan Monitor for a duration of 2 h starting immediately after the injections.

SAM-induced tremors [5] = experiment: Effect of L-DOPA, SAH and NADA on SAM-induced tremors; format: in vivo, rat; settings: for total duration of tremors / number of tremors: 20 min; for effect on the SAM-induced PD-like symptoms: icv before SAM
Protocol: as §1
Cannulated rats were injected either with PBS (5 mml), L-DOPA (1.5 mmmol), SAH (1.0 mmmol) or NADA (1.0 mmmol) followed by an injection of either 0.75 or 1.0 mmmol of SAM. Each compound was dissolved or finely suspended in PBS. They were then monitored for tremors on the Tremor Monitor for a period of 20 min.

[6] = 1 mmmol FC analog icv 5 min before 1 mmmol SAM
[7] = 1 mmmol SAM icv, first 10 min interval of 2 h recording
[8] = 20 min, re-analysis with minimum amplitude 20 and minimum cycles per activity 20
[9] = SAM icv, 20 min recording, frequency window 8 to 20, minimum amplitude 10, minimum 10 cycles
[10] = raw data, 20 min monitoring, minimum amplitude 10, minimum cycles 10
[11] = 1 mmmol NADA or SAH icv followed by 1 mmmol SAM, or SAM alone
[12] = 1.5 mmmol L-DOPA icv before 0.75 mmmol SAM, or SAM alone
[13] = 0 mmmol FC analog followed by 1 mmmol SAM

CC(=O)N[C@@H](CSC/C=C(\C)CC/C=C(\C)CCC=C(C)C)C(=O)O [AFC, N-acetyl-S-farnesyl-L-cysteine]
movement activity (rats [1]): significantly higher degree of movement activity
net rotations ([2]; AFC alone, no amphetamine): only few net rotations
increase of amphetamine-induced rotation ([2]; amphetamine ip plus AFC 1 mmmol icv, versus amphetamine alone): 2 fold
ipsiversive rotations within 90 min ([2]; amphetamine ip plus AFC 1 mmmol into the left lateral ventricle): 830±110
ipsiversive rotations within 90 min ([2]; amphetamine ip plus AFC 1 mmmol into the right lateral ventricle): 790±160
methylation by rat nerve cell membranes in the presence of [3H-methyl]SAM (rat brain membranes): avid methyl acceptors
tremors observed (SAM-induced tremors [3]; 0.5 mmmol FC analog icv 5 min before 1 mmmol SAM): significant reduction of tremors
tremors observed (SAM-induced tremors [3]; [6]): no tremors

C[S+](CC[C@H](N)C(=O)O)C[C@H]1O[C@@H](n2cnc3c(N)ncnc32)[C@H](O)[C@@H]1O (stereo partly drawn) [SAM, S-Adenosyl-L-methionine]
change of membrane-associated radioactivity after addition of non-radioactive compound (reversibility) (rat nerve cell membranes; 100 mmM non-radioactive SAM added after 2 h incubation with [3H-methyl]SAM): neither increased nor decreased
effect on association of [3H-methyl]SAM radioactivity with membranes (rat nerve cell membranes): inhibited
effect on 3H-MPP+ association with membranes (rat nerve cell membranes): little affected
number of tremors (rats [4]; 0.5 mmmol SAM icv, 20 min): minimal
total duration of tremors (rats [4]; 0.5 mmmol SAM icv, 20 min): minimal
increase in number of tremors (rats [4]; 0.75 mmmol SAM icv, 20 min): 7 fold
increase in total duration of tremors compared to the 0.5 mmmol injection (rats [4]; 0.75 mmmol SAM icv, 20 min): 9 fold
rate of tremor episodes during the first 10 min (rats [4]; 1 mmmol SAM icv): about 2 episodes per min
time that abnormal posture, hypokinesia and rigidity remained (rats [4]; 1 mmmol SAM icv): about 90 min
increase in number of tremors (rats [4]; 1 mmmol SAM icv, 20 min): 8 fold
increase in total duration of tremors compared to the 0.5 mmmol injection (rats [4]; 1 mmmol SAM icv, 20 min): 12 fold
number of tremors in the first 10 min interval (rats [4]; [7]): 19±4
total duration of tremors within the first 10 min (rats [4]; [7]): 120 ± 20 s
number of tremor activities (rats [4]; [8]): 70±8
total duration of tremor activity (rats [4]; [8]): 360 ± 18 s
average amplitude (rats [4]; [9]): 42.3±5
frequency (rats [4]; [9]): 12±0.1
number of cycles (waves) per activity (rats [4]; [9]): 54±6
time to onset of tremors, hypokinesia, rigidity and abnormal posture after injection (rats [4]; SAM into the lateral ventricle): 0.5 to 2 min
number of activities (rats [4]; [10]): 92±12
total duration of tremors (rats [4]; [10]): 470 ± 50 s
total duration of tremors (SAM-induced tremors [5]; [11]): 273±128
number of tremors (SAM-induced tremors [5]; [12]): 33±7
total duration of tremors (SAM-induced tremors [5]; [12]): 170 ± 34 s
duration of tremors (SAM-induced tremors [3]; [13]): 310 ± 70 s
number of tremors (SAM-induced tremors [3]; [13]): 46±10

C[S+](CC[C@H](N)C(=O)[O-])C[C@H]1O[C@@H](n2cnc3c(N)ncnc32)[C@H](O)[C@@H]1O (stereo partly drawn) [[^3H-methyl]SAM, S-[methyl-^3H]-SAM]
radioactivity associated with the membranes (rat nerve cell membranes; [3H-methyl]SAM incubated with rat nerve cell membrane preparation, no competitor): about 6000 DPM

N[C@@H](Cc1ccc(O)c(O)c1)C(=O)O [L-DOPA, L-dihydroxyphenylalanine]
number of tremors (SAM-induced tremors [5]; [12]): 25±4
total duration of tremors (SAM-induced tremors [5]; [12]): 111 ± 22 s
effect on the SAM-induced PD-like symptoms (SAM-induced tremors [5]): little or no effect

C[n+]1ccc(-c2ccccc2)cc1 [MPP^+, 1-methyl-4-phenylpyridinium ion]
effect on association of [3H-methyl]SAM radioactivity with membranes (rat nerve cell membranes): No effect

CC(C)=CCCC(C)=CCCC(C)=CCSc1ccccc1C(=O)O [FTS, farnesylthiosalicylic acid]
methylation by rat nerve cell membranes in the presence of [3H-methyl]SAM (rat brain membranes): never methylated
inhibition of the methylation of AFC and FTP (rat brain membranes; indicated concentrations of FTS): dose-dependently inhibited
tremors observed (SAM-induced tremors [3]; [6]): significantly fewer tremors

CC(=O)NCCc1ccc(O)c(O)c1 [NADA, N-acetyldopamine]
total duration of tremors (SAM-induced tremors [5]; [11]): 200±43
effect on the SAM-induced PD-like symptoms (SAM-induced tremors [5]): little or no effect

C[C@H](N)Cc1ccccc1 [amphetamine, d-amphetamine sulfate]
ipsiversive rotations within 90 min ([2]; amphetamine ip (5 mg/kg) alone, 7 days after intrastriatal 6-OHDA): 390±130

Nc1ncnc2c1ncn2[C@@H]1O[C@H](CSCC[C@H](N)C(=O)O)[C@@H](O)[C@H]1O [SAH, S-adenosyl-L-homocysteine]
radioactivity associated with the membranes in presence of competitor (rat nerve cell membranes; [3H-methyl]SAM, 100 mmM competitor in the incubation mixture): about 2000 DPM
effect on 3H-MPP+ association with membranes (rat nerve cell membranes): little affected
total duration of tremors (SAM-induced tremors [5]; [11]): 212±52
effect on the SAM-induced PD-like symptoms (SAM-induced tremors [5]): little or no effect
